Results as given in US6355799B1, “Substituted benzene compounds, process for their preparation, and herbicidal and defoliant compositions containing them” (ISK Americas Incorporated, priority 1997, dated 2002).

How the values were obtained:
Type in all cases: in vivo
[1] = test system: large crabgrass (Digitaria sanguinalis, DIGSA); assay: Pre-emerge test, greenhouse herbicide activity screening; settings: for phytotoxicity rating DIGSA: 14 days after application, rating scale 0-100
Summary of the method: (§1)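 Rating: 0–100 visual injury, 14 DAA. Application: acetone, 187 l/ha, 15–1000 g ai/ha, flat-fan track sprayer with nozzle 40–45 cm above soil or canopy. Post-emerge runs used 0.25% v/v surfactant on 2–3 leaf plants.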

[2] = test system: ivyleaf morningglory (Ipomoea hederacea, IPOHE); assay: as above; settings: for phytotoxicity rating IPOHE: 14 days after application, rating scale 0-100
Summary of the method: as §1

[3] = test system: green foxtail (Setaria viridis, SETVI); assay: as above; settings: for phytotoxicity rating SETVI: 14 days after application, rating scale 0-100
Summary of the method: as §1

[4] = test system: barnyardgrass (Echinochloa crus-galli, ECHCG); assay: as above; settings: for phytotoxicity rating ECHCG: 14 days after application, rating scale 0-100
Summary of the method: as §1

[5] = test system: johnsongrass (Sorghum halepense, SORHA); assay: as above; settings: for phytotoxicity rating SORHA: 14 days after application, rating scale 0-100
Summary of the method: as §1

[6] = test system: lambsquarters (Chenopodium album, CHEAL); assay: as above; settings: for phytotoxicity rating CHEAL: 14 days after application, rating scale 0-100
Summary of the method: as §1

[7] = test system: velvetleaf (Abutilon theophrasti, ABUTH); assay: as above; settings: for phytotoxicity rating ABUTH: 14 days after application, rating scale 0-100
Summary of the method: as §1

[8] = test system: sicklepod (Cassia obtusifolia, CASOB); assay: as above; settings: for phytotoxicity rating CASOB: 14 days after application, rating scale 0-100
Summary of the method: as §1

[9] = test system: upland rice (Oryza sp., var. Tebonnet, RICE); assay: Pre-emerge test, crop safety
Summary of the method: (§2)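 Visual ratings on a 0-100 scale (0 no damage, 100 all plants dead) were taken at 14 days after treatment. Rates of 15-1000 g ai/ha in acetone, 187 l/ha, were sprayed onto soil one day after planting (pre-emerge) or onto 2-3 leaf plants with 0.25% v/v surfactant (post-emerge).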

[10] = test system: field corn (Zea mays L., var. Dekalb 535, CORN); assay: Pre-emerge test, crop safety
Summary of the method: as §2

[11] = test system: redroot pigweed (Amaranthus retroflexus, AMARE); assay: Pre-emerge test, greenhouse herbicide activity screening; settings: for phytotoxicity rating AMARE: 14 days after application, rating scale 0-100
Summary of the method: as §1

[12] = 63 g ai/ha, phytotoxicity rating 0-100, 14 days after application
[13] = 250 g ai/ha, phytotoxicity rating 0-100, 14 days after application
[14] = 63 g ai/ha, crop damage rating 0-100, 14 days after application
[15] = 250 g ai/ha, crop damage rating 0-100, 14 days after application
[16] = pre-emerge, rate 63 g ai/ha, phytotoxicity rating 0-100 at 14 days after application
[17] = pre-emerge, rate 250 g ai/ha, phytotoxicity rating 0-100 at 14 days after application
[18] = crop damage, pre-emerge, rate 63 g ai/ha, phytotoxicity rating 0-100 at 14 days after application
[19] = crop damage, pre-emerge, rate 250 g ai/ha, phytotoxicity rating 0-100 at 14 days after application

COc1c(Cl)cc(F)c(-n2c(=O)cc(C(F)(F)F)n(C)c2=O)c1NC(=O)N(Cc1ccccc1)c1ccccc1 [Compound 3-23]
Pre-emerge Herbicidal Activity DIGSA [1, 12]: 0
Pre-emerge Herbicidal Activity DIGSA [1, 13]: 0
Pre-emerge Herbicidal Activity IPOHE [2, 12]: 0
Pre-emerge Herbicidal Activity IPOHE [2, 13]: 0
Pre-emerge Herbicidal Activity SETVI [3, 12]: 0
Pre-emerge Herbicidal Activity SETVI [3, 13]: 0
Pre-emerge Herbicidal Activity ECHCG [4, 12]: 0
Pre-emerge Herbicidal Activity ECHCG [4, 13]: 0
Pre-emerge Herbicidal Activity SORHA [5, 12]: 0
Pre-emerge Herbicidal Activity SORHA [5, 13]: 0
Pre-emerge Herbicidal Activity CHEAL [6, 12]: 0
Pre-emerge Herbicidal Activity CHEAL [6, 13]: 70
Pre-emerge Herbicidal Activity ABUTH [7, 12]: 0
Pre-emerge Herbicidal Activity ABUTH [7, 13]: 40
Pre-emerge Herbicidal Activity CASOB [8, 12]: 0
Pre-emerge Herbicidal Activity CASOB [8, 13]: 0
Pre-emerge Herbicidal Activity RICE [9, 14]: 0
Pre-emerge Herbicidal Activity RICE [9, 15]: 0
Pre-emerge Herbicidal Activity CORN [10, 14]: 0
Pre-emerge Herbicidal Activity CORN [10, 15]: 0
Pre-emerge Herbicidal Activity AMARE [11, 12]: 0
Pre-emerge Herbicidal Activity AMARE [11, 13]: 0

COc1c(Cl)cc(F)c(-n2nnn(CCCF)c2=O)c1N [Compound 5-3]
Pre-emerge Herbicidal Activity DIGSA [1, 16]: 30
Pre-emerge Herbicidal Activity DIGSA [1, 17]: 100
Pre-emerge Herbicidal Activity IPOHE [2, 16]: 0
Pre-emerge Herbicidal Activity IPOHE [2, 17]: 10
Pre-emerge Herbicidal Activity SETVI [3, 16]: 70
Pre-emerge Herbicidal Activity SETVI [3, 17]: 100
Pre-emerge Herbicidal Activity ECHCG [4, 16]: 0
Pre-emerge Herbicidal Activity ECHCG [4, 17]: 20
Pre-emerge Herbicidal Activity SORHA [5, 16]: 0
Pre-emerge Herbicidal Activity SORHA [5, 17]: 95
Pre-emerge Herbicidal Activity CHEAL [6, 16]: 100
Pre-emerge Herbicidal Activity CHEAL [6, 17]: 100
Pre-emerge Herbicidal Activity ABUTH [7, 16]: 100
Pre-emerge Herbicidal Activity ABUTH [7, 17]: 100
Pre-emerge Herbicidal Activity CASOB [8, 16]: 0
Pre-emerge Herbicidal Activity CASOB [8, 17]: 30
Pre-emerge Herbicidal Activity RICE [9, 18]: 20
Pre-emerge Herbicidal Activity RICE [9, 19]: 20
Pre-emerge Herbicidal Activity CORN [10, 18]: 0
Pre-emerge Herbicidal Activity CORN [10, 19]: 0
Pre-emerge Herbicidal Activity AMARE [11, 16]: 60
Pre-emerge Herbicidal Activity AMARE [11, 17]: 100

C#CCOc1c(Cl)cc(Cl)c(-n2nnn(CCCF)c2=O)c1N [Compound 5-15]
Pre-emerge Herbicidal Activity DIGSA [1, 16]: 0
Pre-emerge Herbicidal Activity DIGSA [1, 17]: 0
Pre-emerge Herbicidal Activity IPOHE [2, 16]: 0
Pre-emerge Herbicidal Activity IPOHE [2, 17]: 0
Pre-emerge Herbicidal Activity SETVI [3, 16]: 0
Pre-emerge Herbicidal Activity SETVI [3, 17]: 0
Pre-emerge Herbicidal Activity ECHCG [4, 16]: 0
Pre-emerge Herbicidal Activity ECHCG [4, 17]: 0
Pre-emerge Herbicidal Activity SORHA [5, 16]: 0
Pre-emerge Herbicidal Activity SORHA [5, 17]: 0
Pre-emerge Herbicidal Activity CHEAL [6, 16]: 0
Pre-emerge Herbicidal Activity CHEAL [6, 17]: 0
Pre-emerge Herbicidal Activity ABUTH [7, 16]: 0
Pre-emerge Herbicidal Activity ABUTH [7, 17]: 0
Pre-emerge Herbicidal Activity CASOB [8, 16]: 0
Pre-emerge Herbicidal Activity CASOB [8, 17]: 0
Pre-emerge Herbicidal Activity RICE [9, 18]: 0
Pre-emerge Herbicidal Activity RICE [9, 19]: 0
Pre-emerge Herbicidal Activity CORN [10, 18]: 0
Pre-emerge Herbicidal Activity CORN [10, 19]: 0
Pre-emerge Herbicidal Activity AMARE [11, 16]: 0
Pre-emerge Herbicidal Activity AMARE [11, 17]: 0

COc1c(Cl)cc(F)c(-n2c(=O)cc(C(F)(F)F)n(C)c2=O)c1O [Compound 16-6, 3-(4-chloro-6-fluoro-2-hydroxy-3-methoxyphenyl)-1-methyl-6-trifluoromethyl-2,4(1H, 3H)-pyrimidinedione]
phytotoxicity rating DIGSA ([1]; pre-emerge, 63 g ai/ha): 0
phytotoxicity rating DIGSA ([1]; pre-emerge, 250 g ai/ha): 70
phytotoxicity rating IPOHE ([2]; pre-emerge, 63 g ai/ha): 50
phytotoxicity rating IPOHE ([2]; pre-emerge, 250 g ai/ha): 90
phytotoxicity rating SETVI ([3]; pre-emerge, 63 g ai/ha): 0
phytotoxicity rating SETVI ([3]; pre-emerge, 250 g ai/ha): 40
phytotoxicity rating ECHCG ([4]; pre-emerge, 63 g ai/ha): 0
phytotoxicity rating ECHCG ([4]; pre-emerge, 250 g ai/ha): 50
phytotoxicity rating SORHA ([5]; pre-emerge, 63 g ai/ha): 0
phytotoxicity rating SORHA ([5]; pre-emerge, 250 g ai/ha): 50
phytotoxicity rating CHEAL ([6]; pre-emerge, 63 g ai/ha): 90
phytotoxicity rating CHEAL ([6]; pre-emerge, 250 g ai/ha): 100
phytotoxicity rating ABUTH ([7]; pre-emerge, 63 g ai/ha): 90
phytotoxicity rating ABUTH ([7]; pre-emerge, 250 g ai/ha): 100
phytotoxicity rating CASOB ([8]; pre-emerge, 63 g ai/ha): 50
phytotoxicity rating CASOB ([8]; pre-emerge, 250 g ai/ha): 70
phytotoxicity rating AMARE ([11]; pre-emerge, 63 g ai/ha): 70
phytotoxicity rating AMARE ([11]; pre-emerge, 250 g ai/ha): 100
